pEC50, pIC50: −log10 of the molar value. Calls of active or inactive are those of the source.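 The calls were made as follows: active = compounds giving half or more protection of infected cells from virus-caused growth loss, again on retest; inactive = the rest.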
Test system: CEM cells HIV-1 protection, formazan growth assay
Experiment: NCI AIDS Antiviral Assay
Settings: for pIC50: measured here: growth of uninfected CEM cells
Method in brief: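 Five concentrations of each compound were applied to infected and uninfected human CEM cells. Protection from HIV-1 was judged from growth measured with a soluble formazan assay.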

Compound	pEC50	pIC50	outcome
CCC(C)C(NC(=O)C(CCCCN)NC(=O)CNC(=O)C(NC(=O)C(NC(=O)C(NC(=O)C(Cc1ccccc1)NC(=O)C(C)NC(=O)C(CCCNC(=N)N)NC(=O)CNC(=O)C1CCCN1C(=O)CNC(=O)C(CCCNC(=N)N)NC(=O)C(CCC(N)=O)NC(=O)C(NC(=O)C(CCCNC(=N)N)NC(=O)C(NC(=O)C(COC1OC(CO)C(O)C(O)C1NC(C)=O)NC(=O)C(CCCCN)NC(=O)C(CCCNC(=N)N)NC(=O)C(NC(=O)C(CC(N)=O)NC(=O)C(N)CC(N)=O)C(C)O)C(C)CC)C(C)CC)C(C)C)C(C)OC1OC(CO)C(O)C(O)C1NC(C)=O)C(C)CC)C(=O)NCOC#N (centres undefined)	< 4.56	< 4.56	
CN1C(=O)C(/C=N/NC(=O)c2cccnc2)C(N)N(C)C1=O (centres undefined)	< 3.70	< 3.70	
NCCC1C2CC3CC(C2)CC1C3 (centres undefined)			inactive
CC1(C)OCC(C2OC3OC(C)(C)OC3C2OC(=S)SSC(=S)OC2C(C3COC(C)(C)O3)OC3OC(C)(C)OC32)O1 (centres undefined)	< 3.70	4.78	
CCCCCCCCCCCCCCCCOP(=O)([O-])OCC[N+](C)(C)C	< 3.51	5.61	
Cc1nc(-c2ccc(Cl)cc2)cn2c1nc1ccccc12	4.21	3.72	
O=C(O)CN1CCN2CCCCCN(CC1)CCN(CC(=O)O)CC2	< 3.70	4.90	
CCOCC(=O)N[C@H]1CCc2cc(OC)c(OC)c(OC)c2-c2ccc(SC)c(=O)cc21	< 6.70	8.94	
C/C=C/C=Nc1c(C#N)c2n(c1C(=O)Nc1ccc(OC)cc1)CCC2	< 3.70	< 3.70	
CC12OC3(C)c4ccccc4OP3(c3ccccc3)(Oc3ccccc31)O2 (centres undefined)	< 4.10	< 4.10	
O=C1CCC2CCOc3ccc(O)c1c32 (centres undefined)			inactive
CC(C)(C)OC(=O)NC(CCCCNC(=O)OCc1ccccc1)C(=O)NCCNc1ccc(NCCNC(=O)C(CCCCNC(=O)OCc2ccccc2)NC(=O)OC(C)(C)C)c2c1C(=O)c1ccccc1C2=O (centres undefined)	< 3.82	5.07	
O=C(CCC(=O)C1CCC/C1=N/O)Nc1ccc(Cl)cc1 (centres undefined)	< 3.52	5.95	
Cc1cccc2oc3c(CC(=O)O)cccc3c(=O)c12	< 3.70	< 4.00	
O=c1c2cnccc2cc2n1CCc1c-2[nH]c2ccccc12	< 4.11	4.99	
O=C(CSc1nnc(-c2ccc(N=Cc3ccc(Cl)cc3)cc2)o1)Nc1ccc([N+](=O)[O-])cc1	< 4.42	4.81	
Cc1ccc(S(=O)(=O)N2CCC(C(=O)O)=Cc3c2[nH]c(=O)n(-c2ccccc2)c3=O)cc1	< 3.54	< 3.54	
N#CC(C(=N/NC(N)=S)/C(=N\NC(N)=S)C(C#N)c1ccccc1)c1ccccc1 (centres undefined)	< 4.01	4.32	
O=C(N[C@H]1c2ccsc2/C(=N/O)[C@H]1O)C(F)(F)F	< 3.70	< 3.70	
COc1ccc(Cc2nnc(C)c3c(C)[nH]nc23)cc1OC			inactive
COC(=O)C12c3ccccc3C(c3ccccc31)c1c(N=O)ccc(NO)c12	< 4.71	< 4.71	
N#CC1=C(N)N(c2ccccc2)C(c2ccco2)C1(C#N)C#N (centres undefined)	< 3.70	5.00	
O=C(O)c1ccccc1C1c2ccccc2Oc2ccccc21	< 3.70	4.45	
COc1ccc(Br)c(N/N=C2\CCCNC2=O)c1			inactive
CSc1cc(-c2ccccn2)nc(-c2ccccn2)c1.CSc1cc(-c2ccccn2)nc(-c2ccccn2)c1.[Mn+2].[O-][Cl+3]([O-])([O-])[O-]	< 6.70	7.20	
COC(=O)C1(SC)C2CCC3C2CCC31 (centres undefined)	< 3.70	< 3.70	

Compound	pEC50	pIC50	outcome
O=C1CC2C(C1Nc1ccccc1)C1C(=Nc3ccccc3)C(Nc3ccccc3)=CC1N2c1ccccc1 (centres undefined)	< 4.99	< 4.99	
CC(=O)NC(CCCCNC(=O)N(C)N=O)C(=O)NCc1ccccc1 (centres undefined)	< 3.16	3.85	
COc1ccc(N=C2C(=Nc3ccc(OC)cc3)N(c3ccccc3)C(=S)N2N=C=C2Sc3ccccc3N2C)cc1	< 3.70	4.59	
O=C1CCC23/C=C/C(=O)NCCCCNCCCNC(=O)/C=C/c4ccc(c2c4)OC3C1 (centres undefined)	< 3.83	< 3.83	
Nc1[nH]c(=O)nc2snnc12	< 3.70	5.32	
COc1cc2c(cc1OC)Cc1cc(OC)c(OC)cc1Cc1cc(OC)c(OC)cc1C2			inactive
CC1OC(c2ccc3c(OCc4ccccc4)cccc3c2O)CC(OCc2ccccc2)[C@H]1OCc1ccccc1 (some centres undefined)	< 3.70	< 3.70	
C=C(C)[C@@H]1CC[C@@]2(C)[C@H]1[C@H]1CCC3[C@@]4(C)CC[C@H](O)C(C)(C)[C@@H]4CC[C@@]3(C)[C@]1(C)C[C@@H]2O (some centres undefined)	< 4.00	4.18	
CNC(=O)O/N=C1\N(C)CN(c2ccccc2)C12CCN(CCCC(=O)c1ccc(F)cc1)CC2	< 3.70	3.98	
CCCCCCCCCCCCCCCCN1c2ccccc2C(C)(C)C12C=Cc1cccc([N+](=O)[O-])c1O2 (centres undefined)	< 3.70	< 3.70	
CC(C)(NC(=O)c1ccccc1SC(=O)CCCC[n+]1ccccc1)C(N)=O	6.00	4.30	
C(=C1/CCCCC([n+]2ccccc2)=N1)/c1ccccc1			inactive
C=C(CS(=O)(=O)c1ccccc1)[P+](c1ccccc1)(c1ccccc1)c1ccccc1			inactive
COC(=O)C(=O)C(C(=O)C(=O)Nc1ccc(C)c(C)c1)c1nc2ccc([N+](=O)[O-])cc2[nH]c1=O (centres undefined)	< 3.27	3.63	
O=C(N/N=C/c1cccc([N+](=O)[O-])c1)C(=O)N/N=C/c1cccc([N+](=O)[O-])c1	< 4.00	< 4.00	
O=C1[C@H]2ON(c3ccccc3)C(c3ccccc3)[C@H]2C(=O)N1c1ccc(Cc2ccc(N3C(=O)[C@@H]4ON(c5ccccc5)C(c5ccccc5)[C@@H]4C3=O)cc2)cc1 (some centres undefined)	< 4.88	< 4.88	
C=CC1(C)CCC2C(=CCC3C2(C)CC(O)C(O)C3(C)COC2OC(C(=O)O)C(O)C(O)C2O)C1 (centres undefined) (tested in a mixture with another compound)	< 4.00	< 4.00	
CCOC(=O)C(NC(=O)c1ccccc1)(Nc1ccc(S(=O)(=O)Nc2cc(C)on2)cc1)C(F)(F)F (centres undefined)	< 3.70	< 3.70	
CCCCCCCCCC[C@@H](OC(C)=O)[C@@H]1CC[C@@H]([C@@H]2CC[C@@H]([C@@H](O)CC#C/C=C/CCCCCCC[C@@]3(Sc4ccccc4)C[C@H](C)OC3=O)O2)O1	< 3.70	3.74	
CCOC(=O)CNC(=O)c1cccc2c(Nc3ccc(S(=O)(=O)Nc4cc(C)on4)cc3)c3ccccc3nc12	< 3.70	4.91	
CC1(C)[C@@H]2C[C@H]1c1cnc(-c3ccccn3)cc1[C@H]2C(O)[C@@H]1c2cc(-c3ccccn3)ncc2[C@H]2C[C@@H]1C2(C)C (some centres undefined)	< 5.30	6.53	
COc1ccc(C(=O)C/C(=N/NC(N)=S)C(=O)Nc2ccccc2)cc1	< 4.60	< 4.60	
CN(C)CCC1(c2ccccc2)C=Cc2ccccc21 (centres undefined)	< 3.70	3.97	
CCOC(=O)Cc1nc(/C(C#N)=C/c2ccco2)[nH]c(=O)c1C#N			inactive
CCCCN(CCCC)C1CCC(Nc2ccnc3cc(Cl)ccc23)CC1 (centres undefined)	< 3.70	4.59	
COc1ccc(C2SCc3nc4ccccc4n32)cc1 (centres undefined)			inactive

Compound	pEC50	pIC50	outcome
N=C1SC2CCCCCCC2S1 (centres undefined)	< 3.70	< 3.70	
CC(C)(O)S(=O)(=O)O	< 3.70	< 3.70	
Cc1nc2sccn2c1C(N)=O	< 3.70	< 3.70	
O=c1[nH]c(=O)c2[nH]c(=O)[nH]c(=O)c2[nH]1	< 3.70	< 3.70	
CNc1nc2c(C)ccc3[nH]c(N(C)C)nc3c-2n1	< 3.12	4.30	
O=c1[nH]c(=O)n(C2CC(O)C(CO)O2)cc1OS(=O)(=O)C(F)(F)F (centres undefined)	< 3.18	5.01	
CC(=O)OC1(C)C=C/C(=N\S(=O)(=O)c2ccc(C)cc2)c2ccccc21 (centres undefined)	< 3.70	5.03	
O=C1/C(=C/c2ccc(Cl)cc2)CCc2ccccc21	< 4.71	< 4.71	
CC(=O)N=C1N(/C=C2\C(=O)Oc3ccccc3C2=O)C(=O)/C(=C/c2cccc(Cl)c2Cl)N1C	< 3.70	4.58	
CCCCC(C)C(OC(=O)CC(CC(=O)O)C(=O)O)C(CC(C)CC(O)CCCCC(O)CC(O)C(C)N)OC(=O)CC(CC(=O)O)C(=O)O (centres undefined)			inactive
O=C1CC(c2ccccc2)n2c(nc3ccccc32)N1 (centres undefined)	< 3.82	4.17	
Cc1ccc(S(=O)(=O)Nc2nnc(S(N)(=O)=O)s2)cc1	< 3.70	< 3.70	
O=C(Nc1ccc(Cl)cc1)C(=O)Nc1ccc(Cl)cc1	< 3.70	< 3.70	
CC1=C(C)C(=O)C(C2=CC(=O)c3ccccc3C2=O)=C(C2=CC(=O)c3ccccc3C2=O)C1=O	< 3.70	5.47	
NC(=S)NNCC(=O)CC(O)(C(F)(F)F)C(F)(F)Cl (centres undefined)	< 3.70	3.91	
O=C(NCCCl)Nc1ccc(S(=O)(=O)c2ccc([N+](=O)[O-])cc2)cc1	< 3.70	4.79	
CC(C)[C@H](NC(=O)OCc1ccccc1)C(=O)N[C@H](/C=C/C(=O)OC(C)(C)C)CO	< 3.70	4.01	
O=C1C2=C(SCCS2)C(=O)c2c(Sc3ccc(Cl)cc3)c(Sc3ccc(Cl)cc3)c(Sc3ccc(Cl)cc3)c(Sc3ccc(Cl)cc3)c21	< 3.82	< 3.82	
CCOC(=O)c1ccc(NCc2ccc3nc(OC)c(OC)nc3c2)cc1	< 4.00	< 4.00	
O=C(CCc1cc(O)ccc1O)OCCc1ccccc1	< 4.70	4.99	
C=CCN=C1NC(=O)C(CC(=O)Nc2cccc(Cl)c2)S1 (centres undefined)	< 3.54	< 3.54	
N=C(N)SCc1ccc2nsnc2c1	< 3.51	4.28	
O=P1(N(CCCl)CCCl)NCCCO1 (centres undefined)	< 3.02	3.52	
CCOC(=O)C1C[C@H]2CO[C@H](c3ccccc3)N2C1=O (some centres undefined)	< 3.70	< 3.70	
COC(=O)c1cc(C(=CCCC(C)[C@H]2CCC3C4CC[C@@H]5CC(F)(F)CC[C@]5(C)C4CC[C@@]32C)c2cc(Cl)c(OC)c(C(=O)OC)c2)cc(Cl)c1OC (some centres undefined)	< 4.00	< 4.00	

Reference: PubChem BioAssay AID179 (DTP/NCI, 2004)
